The text below walks through data of US20080248993A1, “Modified Beta Thymosin Peptides” (REGENERX BIOPHARMACEUTICALS, INC., priority 2005, published 2008).

pKd: −log10 of the molar value. Read-outs that look alike come from different tables or passages of the source.

This assay deals with G-actin. Description: G-actin binding affinity (ultrafiltration of free and bound peptide, HPLC of the ultrafiltrate). On the procedure:
Tests were conducted to determine the G-actin binding affinity of Tβ4^leu as compared to native Tβ4. The experiments were repeated twice and in triplicate, with the results shown below (averages from 3 experiments):
The lower values in the case of Tβ4 are caused by its sulfoxide. Tβ4 plus Tβ4-sulfoxide was determined by amino acid analysis. […] Thus the real concentration of Tβ4 in the tests are lower and the decrease of free Tβ4 is higher when compared to non-oxidized Tβ4. The decrease of free beta-thymosin was measured. G-actin bound Tβ4 and free Tβ4 were separated by ultrafiltration and the concentration of Tβ4 in the ultrafiltrate was measured by HPLC. The procedure utilized is described in Huff et al., FEPS Letters, 414:39-44 (1997).

Setting [1] is: First determination, averages from 3 experiments, read-out: Kd, G-actin binding.
Setting [2] is: Second determination, averages from 3 experiments, read-out: Kd, G-actin binding.

As a reminder, the pKd is −log10 of the Kd, conventionally taken in molar units. For the substance “Tβ4: Native 43 amino acid, 4.9 kDa polypeptide with methionine at position 6; comparator”, the pKd is 6.00 (Example 8, comparison of Tβ4-sulfone with Tβ4 and Tβ4-sulfoxide, read-out: Kd value of the complex with G-actin); 5.89 under setting [1]; 6.27 under setting [2].
On to “Tβ4^leu: Thymosin β4 with leucine substituted for methionine at position 6 (SDKPDLAEIEKFDKSKLKKTETQEKNPLPSKETIEQEKQAGES; not fully specified; Thymosin beta-4; UniProt P62328 2-44, looked up, variant M6L)”, for which the pKd under setting [1] is 5.87 and the pKd under setting [2] is 6.00. In addition, the “G-actin binding, in words” value (qualitative statement) was “substantial actin-binding activity”.
